In ChEMBL document CHEMBL1134100, “An unhydrolyzable analogue of N-(4-hydroxyphenyl)retinamide. synthesis and preliminary biological studies” (Bioorg Med Chem Lett, 2001):

Legend:
Rattus norvegicus [1] = assay: Effect on total mammary tumor volume in female rats on day 7 after a diet additive of 2 mmol/kg (+/-S.E) (p<0.05); assay type: functional
Rattus norvegicus [2] = assay: Effect on total mammary tumor volume in female rats on day 1 after a diet additive of 2 mmol/kg (+/-S.E) (p<0.05); assay type: functional
Rattus norvegicus [3] = assay: Effect on total mammary tumor volume in female rats on day 14 after a diet additive of 2 mmol/kg (+/-S.E) (p<0.05); assay type: functional
Rattus norvegicus [4] = assay: Effect on total mammary tumor volume in female rats on day 21 after a diet additive of 2 mmol/kg (+/-S.E) (p<0.05); assay type: functional
Rattus norvegicus [5] = assay: % change in the mean tumor volume in female rats on 21 days after a diet additive of 2 mmol/kg of the compound; assay type: functional
[6] = biological target: T1, Retinoic acid receptor gamma (Homo sapiens, UniProt P13631); assay: Binding affinity against Retinoic acid receptor gamma
T1 sequence (P13631 whole entry): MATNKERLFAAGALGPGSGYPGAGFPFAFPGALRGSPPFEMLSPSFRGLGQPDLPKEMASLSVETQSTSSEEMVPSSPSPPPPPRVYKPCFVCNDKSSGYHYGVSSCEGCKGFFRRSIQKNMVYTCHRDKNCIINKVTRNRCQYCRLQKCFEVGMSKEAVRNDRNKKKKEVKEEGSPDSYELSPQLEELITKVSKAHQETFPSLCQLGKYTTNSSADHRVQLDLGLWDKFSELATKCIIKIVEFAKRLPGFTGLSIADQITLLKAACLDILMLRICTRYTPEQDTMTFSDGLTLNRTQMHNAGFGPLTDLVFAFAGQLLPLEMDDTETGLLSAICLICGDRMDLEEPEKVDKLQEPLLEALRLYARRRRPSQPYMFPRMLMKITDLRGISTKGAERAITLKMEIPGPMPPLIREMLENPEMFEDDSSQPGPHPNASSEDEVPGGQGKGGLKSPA

Ki [6] [nM]	Compound	Mean tumor volume (Rattus norvegicus [1]) [cm*3]	Mean tumor volume (Rattus norvegicus [2]) [cm*3]	Mean tumor volume (Rattus norvegicus [3]) [cm*3]	Mean tumor volume (Rattus norvegicus [4]) [cm*3]	Change (Rattus norvegicus [5]) [%]
> 400	CC1=C(/C=C/C(C)=C/C=C/C(C)=C/C(=O)Nc2ccc(O)cc2)C(C)(C)CCC1 [FENRETINIDE]	0.17	0.2	0.1	0.05	-77
–	CC1=C(/C=C/C(C)=C/C=C/C(C)=C/C(=O)O)C(C)(C)CCC1 [TRETINOIN]	0.46	0.69	0.27	0.18	-74
> 4000	CC1=C(/C=C/C(C)=C/C=C/C(C)=C/C(=O)Cc2ccc(O)cc2)C(C)(C)CCC1	0.47	0.59	0.15	0.09	-85
